Reference: patent US20150018360A1, “COMPOSITIONS AND METHODS FOR TREATING METABOLIC DISORDERS” (BIOMED VALLEY DISCOVERIES, INC., priority 2011, published 2015)
Each block holds one compound with its values, some of them ahead of it.

Experiments:
[1] = test system: diet-induced obese (DIO) mice; experiment: Oral glucose tolerance test (OGTT) in diet-induced obese mice; assay type: in vivo, mouse; details: for glucose lowering effects in OGTT (glucose AUC): DIO C57BL/6 mice, 125 mg/kg i.p. once daily for 5 days
Text: High-fat diet feeding in rodents changes multiple biochemical and physiological parameters that reflect the biochemical and physiological changes observed in diet induced obesity (D10). Such diets induce dramatic changes in weight gain that are concomitant with elevations in serum cholesterol, lipids, and triglycerides. Moreover, these high fat diets can lead to atherosclerotic lesions as well as insulin resistance and dysregulation of glucose homeostatic mechanisms that are consistent with obesity induced changes in humans.
Type II diabetes is characterized by high blood glucose levels in the presence of normal amounts of insulin. The animal model or type II diabetes used in these studies involves administering high levels of glucose and then measuring blood glucose levels over time. The test is designed to determine the ability of the experimental animal to maintain glucose homeostasis over time. Drugs that lower blood glucose levels in type II diabetic patients also lower blood glucose levels in this animal model of type II diabetes.
Male C57BL/6J mice were fed a high fat diet for 5 weeks (age 6-11 weeks) prior to study. […] DIO mice were food deprived overnight prior to glucose load (1.5 g/kg, t0). Mice were treated with drug or vehicle 30 minutes before glucose load (t-30). Blood glucose was measured with a glucometer (Accu-Chek® Roche, Indianapolis, IN), from the tip of the tail in free moving mice, at 15 minutes before (t-15), 15 minutes after (t15), and 45 minutes after (t45) glucose load.
In these studies, C57BL/6 mice were fed a high fat diet from 6 to 11 weeks of age, resulting in diet-induced obesity. […] After 5 days of dosing, animals were fasted overnight prior to an oral glucose tolerance test (OGTT). The morning after fasting, a baseline glucose level was measured, followed by compound or vehicle dosing. A second blood glucose level was measured 15 minutes later. At 30 minutes past the first glucose measurement, animals were challenged with a 1.5 g/kg glucose solution per os (p.o.), and blood glucose levels determined 15 and 45 minutes later. Areas under the curve were determined for the blood glucose levels, baselined at the first measurement.

[2] = Body weight of DIO mice during 15-day treatment; assay type: in vivo, mouse; details: either time-point or dose (data not shown)
[3] = target: T1, human recombinant dipeptidyl dipeptidase-4 (DPP4) (Homo sapiens, UniProt P27487); experiment: Human recombinant DPP4 assay with fluorogenic substrate GP-AMC; assay type: biochemical; details: 10 μM; % of control; ns
T1 construct: Cerep (contract laboratory that ran the assay)
T1 sequence (P27487 whole entry): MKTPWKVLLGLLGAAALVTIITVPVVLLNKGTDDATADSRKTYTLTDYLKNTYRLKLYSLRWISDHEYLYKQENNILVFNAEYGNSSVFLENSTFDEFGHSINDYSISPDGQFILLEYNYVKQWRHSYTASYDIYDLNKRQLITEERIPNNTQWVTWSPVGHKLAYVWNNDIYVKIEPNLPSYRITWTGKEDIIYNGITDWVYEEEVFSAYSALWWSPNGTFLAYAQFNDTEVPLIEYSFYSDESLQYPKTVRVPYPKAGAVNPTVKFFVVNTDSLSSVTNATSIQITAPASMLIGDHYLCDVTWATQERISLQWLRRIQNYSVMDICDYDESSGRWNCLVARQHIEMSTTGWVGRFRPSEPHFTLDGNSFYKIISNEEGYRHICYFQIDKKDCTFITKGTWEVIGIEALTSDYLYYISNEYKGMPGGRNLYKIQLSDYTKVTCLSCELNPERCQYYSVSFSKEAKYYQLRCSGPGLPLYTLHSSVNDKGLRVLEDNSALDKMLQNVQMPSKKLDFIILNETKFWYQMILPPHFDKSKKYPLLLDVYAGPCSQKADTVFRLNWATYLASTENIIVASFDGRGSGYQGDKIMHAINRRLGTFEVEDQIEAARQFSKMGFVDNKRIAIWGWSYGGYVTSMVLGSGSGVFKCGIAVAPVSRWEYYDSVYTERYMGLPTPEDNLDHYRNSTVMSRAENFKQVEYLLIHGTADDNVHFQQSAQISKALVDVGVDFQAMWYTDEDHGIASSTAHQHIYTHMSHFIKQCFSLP
Method: DPP4 inhibitor K579 was used as a positive control. Assay was performed by Cerep (Bois l'Eveque, France).
Inhibition is represented as % of control.

[4] = target: Kir6.2/SUR1 potassium channels (Homo sapiens, UniProt Q09428+Q14654); experiment: Kir6.2/SUR1 potassium channel patch clamp (PatchXpress) in HEK293 cells
Sequence of Kir6.2/SUR1 potassium channels (Q14654 whole entry): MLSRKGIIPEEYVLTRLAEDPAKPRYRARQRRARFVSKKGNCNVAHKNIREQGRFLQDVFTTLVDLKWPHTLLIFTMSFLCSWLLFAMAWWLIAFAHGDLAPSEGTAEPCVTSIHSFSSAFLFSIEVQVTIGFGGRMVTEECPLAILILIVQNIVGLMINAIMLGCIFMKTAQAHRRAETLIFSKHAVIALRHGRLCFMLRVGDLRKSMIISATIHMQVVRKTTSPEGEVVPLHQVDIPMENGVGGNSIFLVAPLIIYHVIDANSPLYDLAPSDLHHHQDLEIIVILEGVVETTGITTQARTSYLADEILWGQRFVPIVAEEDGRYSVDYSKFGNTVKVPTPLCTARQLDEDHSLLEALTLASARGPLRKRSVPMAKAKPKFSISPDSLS
Sequence of Kir6.2/SUR1 potassium channels (Q09428 whole entry): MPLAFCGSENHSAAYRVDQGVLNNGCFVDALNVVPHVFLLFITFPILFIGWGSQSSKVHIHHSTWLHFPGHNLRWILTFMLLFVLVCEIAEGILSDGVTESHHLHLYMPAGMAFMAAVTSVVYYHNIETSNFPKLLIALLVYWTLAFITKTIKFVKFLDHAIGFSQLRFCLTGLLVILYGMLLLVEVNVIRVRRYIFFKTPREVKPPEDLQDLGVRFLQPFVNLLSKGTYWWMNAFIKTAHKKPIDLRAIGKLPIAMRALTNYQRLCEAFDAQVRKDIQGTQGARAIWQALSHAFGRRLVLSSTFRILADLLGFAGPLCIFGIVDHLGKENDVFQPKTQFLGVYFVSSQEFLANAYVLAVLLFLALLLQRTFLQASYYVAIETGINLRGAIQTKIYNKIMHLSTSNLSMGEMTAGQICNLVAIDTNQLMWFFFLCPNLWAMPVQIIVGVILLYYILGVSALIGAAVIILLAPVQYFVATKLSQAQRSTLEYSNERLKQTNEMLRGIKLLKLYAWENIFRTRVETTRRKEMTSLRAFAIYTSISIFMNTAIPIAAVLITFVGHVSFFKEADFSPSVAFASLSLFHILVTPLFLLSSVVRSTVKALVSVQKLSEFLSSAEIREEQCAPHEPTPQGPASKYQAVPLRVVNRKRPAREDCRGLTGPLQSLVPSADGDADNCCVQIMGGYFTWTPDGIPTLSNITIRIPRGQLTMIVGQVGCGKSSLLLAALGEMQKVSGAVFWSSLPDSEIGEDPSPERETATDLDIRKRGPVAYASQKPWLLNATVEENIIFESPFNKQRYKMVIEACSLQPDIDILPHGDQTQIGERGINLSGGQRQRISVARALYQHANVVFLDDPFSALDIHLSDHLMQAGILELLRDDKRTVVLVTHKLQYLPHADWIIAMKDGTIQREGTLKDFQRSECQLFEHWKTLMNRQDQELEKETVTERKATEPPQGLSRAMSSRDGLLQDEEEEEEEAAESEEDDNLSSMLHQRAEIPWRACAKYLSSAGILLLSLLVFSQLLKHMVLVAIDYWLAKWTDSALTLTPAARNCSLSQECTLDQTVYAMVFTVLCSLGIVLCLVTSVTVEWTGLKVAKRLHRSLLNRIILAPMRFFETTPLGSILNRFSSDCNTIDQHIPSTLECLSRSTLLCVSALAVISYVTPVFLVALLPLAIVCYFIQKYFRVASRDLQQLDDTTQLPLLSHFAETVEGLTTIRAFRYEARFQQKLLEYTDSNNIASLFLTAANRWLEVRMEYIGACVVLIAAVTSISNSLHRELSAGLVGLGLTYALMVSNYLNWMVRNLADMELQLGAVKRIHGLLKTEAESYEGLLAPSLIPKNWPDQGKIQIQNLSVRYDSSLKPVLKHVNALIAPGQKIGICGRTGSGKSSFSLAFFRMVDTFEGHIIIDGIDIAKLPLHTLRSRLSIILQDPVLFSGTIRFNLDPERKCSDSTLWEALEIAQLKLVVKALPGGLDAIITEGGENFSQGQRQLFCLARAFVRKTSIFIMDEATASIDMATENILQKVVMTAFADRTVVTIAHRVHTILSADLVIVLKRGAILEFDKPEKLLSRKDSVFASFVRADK
Text: Inhibition is represented as % of control. “ns” represents not statistically significant or P>0.05.

[5] = test system: circulating prolactin levels; experiment: Prolactin assay (plasma prolactin ELISA after OGTT); assay type: in vivo, mouse; details: DIO mice, once daily i.p. for 5 days, plasma 45 min after glucose load
Method: Mice were treated with drug or vehicle 30 minutes before an OGTT (t-30). At 45 minutes after glucose load (t45), mice were bled via retro-orbital sinus into EDTA microfuge tubes. Plasma was rapidly prepared and stored at −80° C. until measurement of prolactin levels (ELISA kit, Genway Biotech, San Diego, Calif.).

normal mice = experiment: OGTT with plasma insulin determination in normal mice; assay type: in vivo, mouse; details: single dose 10 mg/kg i.p.
Method: (§1) Normal male 12 week old C57BL/6J mice were food deprived 6 hours before the glucose load (1.5 g/kg, t0). Mice were treated with drug or vehicle 30 minutes before glucose load (t-30). Blood glucose was measured with a glucometer (Accu-Chek® Roche, Nutley, N.J.), from the tip of the tail in free moving mice, at t-30, t0, t15, t30, t60, t90, t120 minutes. Blood collection (about 20 μl) was performed from the tip of the tail at t-30, t15 and t30 for plasma insulin determination (ELISA kit, Alpco Diagnostics, Salem, N.H.). After a 1-week washout period, mice were randomly allocated into 2 groups. Mice were food deprived 6 hours before the glucose load (1.5 g/kg, t0) was performed. Mice were treated with drug or vehicle 30 minutes before glucose load. Blood glucose was measured at t0 and t15 minutes. At t15, mice were anesthetized with isoflurane and blood was collected from the hepatoportal vein (on EDTA/diprotin/ aprotinin anticoagulant cocktail). Plasma was rapidly prepared and stored at -80° C. The active form of GLP-1 was then measured (ELISA kit, Millipore, Billerica, Mass.).

active GLP-1 = experiment: Active GLP-1 in hepatoportal vein blood of normal mice; assay type: in vivo, mouse; details: 10 mg/kg i.p., 15 min after glucose bolus
Method: as §1

[6] = Pharmacokinetic analysis in mice (plasma, LC/MS/MS); assay type: in vivo, mouse; details: normal male mice, 10 mg/kg i.p.
Method: Male C57B1/6 mice (n =4, two cohorts) were treated with drug and at the designated times after dosing (5, 15, 30, 60 and 120), whole blood was collected via the retro-orbital sinus in heparanized tubes and plasma prepared by centrifugation at 1650 relative centrifugal force (RCF) at 4° C. Plasma samples were extracted by a standard protocol using an acetonitrile/protein precipitation method, and levels of test agent were analyzed by LC/MS/MS.

serum prolactin levels = details: rat, cited from earlier work; for increase in serum prolactin levels: marker of dopamine D2 receptor blockade
dopamine D2/D3 receptors = details: in-vitro assays; cited from earlier work

% inhibition of DPP4 [3]: 1.9 (2.0) %
% inhibition of Kir6.2/SUR1 ([4]; 10 μM, HEK293 cells, channel activated with 300 μM diazoxide, % of control, ns): 3.4 (2.4) %
effect on the sulphonylurea receptor in-vitro ([4]; in-vitro (Table 5)): unaffected
Structure (SMILES): CCN1CCCC1CNC(=O)c1cc(S(=O)(=O)CC)c(N)cc1OC (racemic) [(R/S)-amisulpride, amisulpride]
glucose lowering effects in OGTT (glucose AUC) [1]: glucose lowering effects
fasting blood glucose levels ([1]; DIO mice, 20 mg/kg, following 5 days of treatment, P<0.05 vs vehicle): 158.7 ± 7.5 mg/dL
glucose excursion during the OGTT ([1]; DIO mice, once daily i.p. for 15 days, both amisulpride doses, OGTT on days 5 and 15): significant reduction
changes in body weight [2]: No changes

Structure (SMILES): CCN1CCCC1CNC(=O)c1cc(S(N)(=O)=O)ccc1OC (racemic) [(R/S)-sulpride]
glucose lowering effects in OGTT (glucose AUC) [1]: glucose lowering effects

Structure (SMILES): CCN1CCC[C@@H]1CNC(=O)c1cc(S(=O)(=O)CC)c(N)cc1OC [(R)-amisulpride, (R)(+)-amisulpride]
ED50 for effect on circulating prolactin levels [5]: 1.5 mg/kg
increase in circulating insulin levels compared to vehicle (normal mice; OGTT): approximately 2.5 fold
glucose excursions (normal mice; vs vehicle): significantly decreased
active form GLP-1 levels from the hepatic portal vein (active GLP-1): unchanged
maximal plasma drug levels [6]: did not exceed concentrations used in the in vitro assays
increase in serum prolactin levels (serum prolactin levels): 1 fold
increase in ED50 required to reach maximal effect on prolactin, compared to (S)-amisulpride (serum prolactin levels): 40 fold
times less potent than (S)-amisulpride in displacing dopamine D2/D3 receptor ligands (dopamine D2/D3 receptors): 20-40 times

Structure (SMILES): CCN1CCC[C@H]1CNC(=O)c1cc(S(=O)(=O)CC)c(N)cc1OC [(S)-amisulpride, (S)(−)-amisulpride]
ED50 for effect on circulating prolactin levels [5]: 0.01 mg/kg
increase in serum prolactin levels (serum prolactin levels): 4 fold
